Paper PMC8366453, “Efficacy of RyR2 inhibitor EL20 in induced pluripotent stem cell‐derived cardiomyocytes from a patient with catecholaminergic polymorphic ventricular tachycardia” (Journal of Cellular and Molecular Medicine, 2021)

Target: cardiac ryanodine receptor type‐2 (RyR2) (Homo sapiens, UniProt Q92736, R176Q)
Experiment: Confocal Ca2+ spark frequency dose-response in paced CPVT patient iPSC-derived cardiomyocytes (heterozygous R176Q)
Assay type: cell-based

cardiac ryanodine receptor type‐2 (RyR2), sequence (Q92736 whole entry R176Q): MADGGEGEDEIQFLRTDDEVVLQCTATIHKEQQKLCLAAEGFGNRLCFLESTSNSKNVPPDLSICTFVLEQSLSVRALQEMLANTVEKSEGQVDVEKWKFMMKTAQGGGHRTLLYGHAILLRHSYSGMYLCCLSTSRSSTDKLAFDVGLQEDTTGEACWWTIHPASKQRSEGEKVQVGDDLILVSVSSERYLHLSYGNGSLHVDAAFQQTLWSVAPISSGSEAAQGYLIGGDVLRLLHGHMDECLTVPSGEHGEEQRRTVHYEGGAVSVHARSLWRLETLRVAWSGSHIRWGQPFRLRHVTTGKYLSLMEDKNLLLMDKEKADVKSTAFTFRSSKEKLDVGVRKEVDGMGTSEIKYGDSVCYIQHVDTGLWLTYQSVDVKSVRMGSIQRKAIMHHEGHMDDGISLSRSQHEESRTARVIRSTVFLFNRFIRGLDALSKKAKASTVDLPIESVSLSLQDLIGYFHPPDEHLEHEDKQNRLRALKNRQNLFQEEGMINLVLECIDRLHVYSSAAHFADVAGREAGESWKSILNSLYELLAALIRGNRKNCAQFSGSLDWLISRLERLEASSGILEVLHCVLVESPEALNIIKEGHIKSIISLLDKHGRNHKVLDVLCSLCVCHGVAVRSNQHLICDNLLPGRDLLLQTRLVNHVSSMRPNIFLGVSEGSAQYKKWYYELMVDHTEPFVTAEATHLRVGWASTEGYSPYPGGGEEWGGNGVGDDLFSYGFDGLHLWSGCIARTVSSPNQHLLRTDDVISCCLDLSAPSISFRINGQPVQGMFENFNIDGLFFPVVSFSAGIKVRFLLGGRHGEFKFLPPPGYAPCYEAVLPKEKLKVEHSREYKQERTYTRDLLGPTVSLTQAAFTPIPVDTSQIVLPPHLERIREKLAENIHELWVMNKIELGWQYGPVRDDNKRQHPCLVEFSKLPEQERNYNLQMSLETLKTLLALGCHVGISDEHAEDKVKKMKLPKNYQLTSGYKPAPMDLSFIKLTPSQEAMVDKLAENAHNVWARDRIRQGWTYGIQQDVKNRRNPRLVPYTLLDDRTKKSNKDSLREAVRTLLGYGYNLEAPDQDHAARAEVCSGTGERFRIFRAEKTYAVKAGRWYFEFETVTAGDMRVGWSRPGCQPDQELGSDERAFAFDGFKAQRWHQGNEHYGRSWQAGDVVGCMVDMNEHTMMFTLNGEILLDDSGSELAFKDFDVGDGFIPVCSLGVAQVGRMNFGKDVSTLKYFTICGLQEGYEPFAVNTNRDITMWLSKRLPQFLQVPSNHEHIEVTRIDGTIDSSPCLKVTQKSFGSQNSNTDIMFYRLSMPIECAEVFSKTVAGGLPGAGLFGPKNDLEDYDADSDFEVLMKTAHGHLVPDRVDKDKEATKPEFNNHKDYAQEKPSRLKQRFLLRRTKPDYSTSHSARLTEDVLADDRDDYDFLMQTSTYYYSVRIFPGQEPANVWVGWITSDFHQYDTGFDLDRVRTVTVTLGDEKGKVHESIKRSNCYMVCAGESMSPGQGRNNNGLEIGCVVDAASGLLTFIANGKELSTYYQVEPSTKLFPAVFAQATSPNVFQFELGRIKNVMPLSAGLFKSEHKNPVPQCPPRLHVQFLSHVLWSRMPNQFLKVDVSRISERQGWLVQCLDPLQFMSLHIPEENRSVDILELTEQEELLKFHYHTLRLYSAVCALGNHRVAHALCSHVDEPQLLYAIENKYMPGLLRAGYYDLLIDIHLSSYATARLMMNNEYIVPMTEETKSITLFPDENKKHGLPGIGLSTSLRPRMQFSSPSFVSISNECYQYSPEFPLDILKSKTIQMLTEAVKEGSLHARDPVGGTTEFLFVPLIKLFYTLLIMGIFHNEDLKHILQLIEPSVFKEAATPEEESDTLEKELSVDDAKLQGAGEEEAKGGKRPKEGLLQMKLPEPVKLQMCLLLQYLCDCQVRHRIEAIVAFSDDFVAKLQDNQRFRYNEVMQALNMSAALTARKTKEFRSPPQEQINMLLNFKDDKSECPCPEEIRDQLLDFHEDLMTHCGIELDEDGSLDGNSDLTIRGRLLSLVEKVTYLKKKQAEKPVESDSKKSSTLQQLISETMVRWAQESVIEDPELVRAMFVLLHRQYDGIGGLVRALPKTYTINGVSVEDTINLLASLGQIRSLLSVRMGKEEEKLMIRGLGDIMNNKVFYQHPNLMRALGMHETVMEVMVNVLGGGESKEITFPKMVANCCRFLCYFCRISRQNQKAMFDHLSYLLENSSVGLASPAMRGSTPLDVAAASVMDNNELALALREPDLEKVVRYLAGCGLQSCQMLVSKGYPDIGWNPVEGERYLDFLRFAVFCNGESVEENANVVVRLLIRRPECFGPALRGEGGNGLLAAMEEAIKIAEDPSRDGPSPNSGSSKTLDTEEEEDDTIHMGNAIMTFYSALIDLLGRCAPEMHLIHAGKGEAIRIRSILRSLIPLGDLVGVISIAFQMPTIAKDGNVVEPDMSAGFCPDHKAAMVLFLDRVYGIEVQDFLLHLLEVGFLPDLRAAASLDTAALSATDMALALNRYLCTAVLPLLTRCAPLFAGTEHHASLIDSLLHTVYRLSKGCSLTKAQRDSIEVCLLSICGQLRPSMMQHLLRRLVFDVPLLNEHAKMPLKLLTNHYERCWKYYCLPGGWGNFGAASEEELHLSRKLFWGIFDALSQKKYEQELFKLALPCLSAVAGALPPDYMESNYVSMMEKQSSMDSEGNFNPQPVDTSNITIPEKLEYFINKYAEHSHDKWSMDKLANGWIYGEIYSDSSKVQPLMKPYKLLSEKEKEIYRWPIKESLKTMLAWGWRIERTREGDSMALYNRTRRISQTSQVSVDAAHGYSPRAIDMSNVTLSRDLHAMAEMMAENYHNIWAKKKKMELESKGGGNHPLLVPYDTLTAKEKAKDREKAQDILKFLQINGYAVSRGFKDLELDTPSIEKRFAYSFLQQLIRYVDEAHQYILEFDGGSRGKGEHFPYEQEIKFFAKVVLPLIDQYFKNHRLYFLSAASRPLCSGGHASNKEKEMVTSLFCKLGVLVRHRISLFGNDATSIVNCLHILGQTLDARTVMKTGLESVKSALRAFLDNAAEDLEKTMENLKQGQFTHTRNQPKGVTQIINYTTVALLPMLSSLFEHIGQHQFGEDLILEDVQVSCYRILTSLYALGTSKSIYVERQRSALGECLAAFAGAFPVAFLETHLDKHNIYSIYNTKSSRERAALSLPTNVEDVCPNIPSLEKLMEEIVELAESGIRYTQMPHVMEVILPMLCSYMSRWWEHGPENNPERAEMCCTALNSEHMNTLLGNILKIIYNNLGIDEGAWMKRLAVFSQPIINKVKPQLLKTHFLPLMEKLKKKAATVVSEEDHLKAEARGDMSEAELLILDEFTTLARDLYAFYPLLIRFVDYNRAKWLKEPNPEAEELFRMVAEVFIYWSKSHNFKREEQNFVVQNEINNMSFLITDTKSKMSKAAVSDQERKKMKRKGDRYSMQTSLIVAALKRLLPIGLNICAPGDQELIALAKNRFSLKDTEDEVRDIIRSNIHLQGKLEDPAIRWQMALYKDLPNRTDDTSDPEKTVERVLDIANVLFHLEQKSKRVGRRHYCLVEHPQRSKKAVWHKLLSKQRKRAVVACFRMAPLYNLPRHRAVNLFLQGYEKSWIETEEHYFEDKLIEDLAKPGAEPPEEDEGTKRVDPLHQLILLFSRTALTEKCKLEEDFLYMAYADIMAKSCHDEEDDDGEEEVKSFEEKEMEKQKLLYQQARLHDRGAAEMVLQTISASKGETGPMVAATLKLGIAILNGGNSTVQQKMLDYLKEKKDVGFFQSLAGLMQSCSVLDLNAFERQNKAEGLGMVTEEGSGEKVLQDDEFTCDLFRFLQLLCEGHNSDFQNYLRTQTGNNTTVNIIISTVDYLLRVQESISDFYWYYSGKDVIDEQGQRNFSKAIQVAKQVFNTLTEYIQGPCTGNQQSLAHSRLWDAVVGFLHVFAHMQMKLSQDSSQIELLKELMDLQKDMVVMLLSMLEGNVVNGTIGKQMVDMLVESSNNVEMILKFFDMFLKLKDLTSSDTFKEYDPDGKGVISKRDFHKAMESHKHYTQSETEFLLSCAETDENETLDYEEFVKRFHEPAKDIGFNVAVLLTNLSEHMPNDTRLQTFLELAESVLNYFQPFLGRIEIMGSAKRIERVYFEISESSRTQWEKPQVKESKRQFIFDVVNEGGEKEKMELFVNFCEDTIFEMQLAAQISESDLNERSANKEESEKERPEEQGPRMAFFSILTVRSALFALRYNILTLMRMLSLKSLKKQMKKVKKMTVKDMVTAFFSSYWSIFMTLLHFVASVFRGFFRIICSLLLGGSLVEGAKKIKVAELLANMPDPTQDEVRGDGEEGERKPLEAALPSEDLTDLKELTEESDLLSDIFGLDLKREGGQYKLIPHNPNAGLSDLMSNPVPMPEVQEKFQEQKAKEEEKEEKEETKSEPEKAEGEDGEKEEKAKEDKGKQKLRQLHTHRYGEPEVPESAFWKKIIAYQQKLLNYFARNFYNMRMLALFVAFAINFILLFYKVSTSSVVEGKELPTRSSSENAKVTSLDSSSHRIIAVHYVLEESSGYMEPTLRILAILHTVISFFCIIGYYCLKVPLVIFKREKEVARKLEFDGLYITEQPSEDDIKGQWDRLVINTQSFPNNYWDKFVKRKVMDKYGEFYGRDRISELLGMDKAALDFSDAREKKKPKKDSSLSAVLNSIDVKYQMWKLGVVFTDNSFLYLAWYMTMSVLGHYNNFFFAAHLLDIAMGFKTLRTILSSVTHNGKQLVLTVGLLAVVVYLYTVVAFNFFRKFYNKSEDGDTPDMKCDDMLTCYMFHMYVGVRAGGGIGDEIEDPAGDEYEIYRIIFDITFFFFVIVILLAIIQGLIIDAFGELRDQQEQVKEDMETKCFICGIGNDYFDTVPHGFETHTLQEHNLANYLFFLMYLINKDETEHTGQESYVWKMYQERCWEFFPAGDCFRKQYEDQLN

IC50: 82 nM
Structure (SMILES): CCCCNc1ccc(C(=O)OCCN(CC)CC)c(OC)c1 [EL20]
